# Measured values published in patent US20240047019A1, “MODEL-FREE TIME-INVARIANT EVALUATION OF TRANSPORT AND EFFICACY OF CHEMICALS AND DRUGS” (Seqvera Ltd. Oy, priority 2022, published 2024).
# Read-outs that look alike come from different tables or passages of the source.
# Legend:
# [1] = tested on: L-type Ca^2+ current (ICa); assay: calcium current (ICa) changes in ventricular myocytes with NCX inhibitor; assay type: cell-based, canine
# Excerpt: In this example the data from publication by Oravecz et.al. was used, where authors have attempted to clarify the underlying mechanism of the limited inotropic action of selective sodium-calcium exchange (NCX) inhibition by a novel inhibitor molecule (ORM-10962) on canine ventricular myocytes. […] The forward mode operation of NCX is considered as the main route of Ca^2+ removal balancing the Ca^2+influx generated by the L-type Ca^2+ current (ICa) and the reverse mode NCX activity. […] These experimental data have been analyzed in the present invention. […] In order to perform time convolution directly, the concentration of ORM-10962 should have been known in the target compartment, but here only the effect size (current measured) has been reported.
# [2] = tested on: L-type Ca^2+ current (ICa); settings: steady-state conditions; cited from earlier work
# [3] = caffeine transport in membrane-separated chip, control tests (bare membrane); assay type: in vitro ADME; settings: 0.25 mg/mL
# Experimental: In this example data of caffeine transport measurements disclosed in publication are analyzed with a new method. […] The membrane had 0.4 micrometer pore size and was made of polyester track etched (PETE) insert, which was used bare (control tests) and with a double layer of cells (actual tests): human umbilical vein endothelial cells (HUVECs) and BeWo cells (derived from a human choriocarcinoma) to represent the endothelium in the fetal interface and the epithelium in the maternal interface. The mean data used are from three independent experiments.
# [4] = tested on: placental barrier (HUVECs and BeWo cells); assay: caffeine transport in placenta-on-a-chip, actual tests (double cells layer); assay type: in vitro ADME, human; settings: 0.25 mg/mL
# [5] = cited from earlier work; for Tested c2(t): 100 mg, mean of 12, cumulative
# clinical = settings: human, in vivo
# Excerpt: The method used in publication relies on fractional order derivatives with a multi-compartmental model using Laplace transform, which is not a common operation a lab technician usually able to perform. […] The resulting simplified equation for time changes of the concentration in the blood plasma (=the target compartment in the terminology of the recent invention), designated as c2(t) in [6], was expressed with six unknown parameters (d, k02, k21, α1, α2 and the lag time) as:
# Clinical data of Popovic et al. have been used representing evaluation of diclofenac pharmacokinetics in a small number of healthy adults during a bioequivalence trial. In the spirit of the present invention, the data from were taken as cumulative concentration of diclofenac, averaged for all 12 patients. Here the initial mass of the drug was known of 100 mg, and the instant volume of distribution (VOD-2) was directly quantifiable by diving this mass for the measured cumulative concentration analyzed (Table 2).
# [6] = gentamicin elution from coated Ti-6Al-4V disks into 2 mL distilled water at 37° C.; assay type: physicochemical; settings: for c2(t), gentamicin concentration in the target compartment: distilled water 37° C.; for Remained in the coating: of 1395 μg/disk
# Experimental: In this example the most detailed in vitro testing conditions have been used. Disk of diameter 15.5 mm and thickness of 2 mm made of medical titanium Grade 5 (Ti-6Al-4V) alloy were uniformly coated with a mixture of 1395 μg/disk gentamicin palmitate and 3745 μg/disk palmitic acid in triplicate (9 disks=3 disks×3 repetitions).
# Disks were placed into a glass tube filled with 2 mL distilled water at constant temperature 37° C. and aliquots of 0.050 mL were periodically extracted without refilling the remining volume. The concentration of gentamicin in these samples was measured in mg/L and based on this, the amount of gentamicin in the remaining solution was calculated. The procedure was repeated until 336 h have been accumulated, and the average of three measurements has been calculated, Table 5.
# After 336 hours of measurements, totally 0.5 mL of liquid is removed and about 60 μg of the drug is taken off the system. This represents of 25% of the total liquid volume and about 23.5% of the total drug released from the disk. With unknown solubility from the beginning, it is difficult to say how this drug removal affects the solubility rate, diffusion rate (concentration gradient uneven) and about the release kinetics in general (besides just making a curve fitting). As liquid is being periodically removed, the VOD-2 in the target compartment is getting smaller from 2 mL to 1.5 mL (being not constant) and thus the concentration of gentamicin there (c2(t)) is affected too.
# For the method of the present invention, exact VOD-1 for the source compartment has been first calculated. For the density of gentamicin palmitate of 1.5 g/cc and palmitic acid of 0.86 g/cc, taking into account the disk surface area of 188.69 mm^2, the expected dense coating thickness is about 28 μm at the beginning of the test, leading to the VOD-1 value (for the source compartment) of 5.285 mm^3. Since VOD-2 is not constant due to aliquots takeoffs, the coefficient of partition is not constant either and will change with time, approaching an equilibrium value (Leq).
# [7] = least-squares fit in [6], slow release 100 mg tablet
molecule,measurement,setting,value
O=C(CN1CCC(O)CC1)Nc1ccc(Oc2ccc3c(c2)CCC(c2ccccc2)O3)nc1 (stereo not shown) [ORM-10962],efficacy parameter LCa,[1]; ICa change per μM of the added drug,42.123 nA/μM
same,characteristic time,[1]; calcium current in myocytes,1.69 s
same,non-dimensional transport constant K,[1]; calcium current in myocytes,104.5
same,reduction of ICa amplitude in the presence vs. absence of the inhibitor,[2],significantly greater
Cn1c(=O)c2c(ncn2C)n(C)c1=O [caffeine],Characteristic time τ,[3],40 min
same,Transport constant K,[3],162.77
same,kinetic parameter β,[3],2.0-2.9
same,Coefficient of partition Leq,[3]; Control (no cells),5.61
same,Coefficient of partition Leq,[4]; Actual (double cells layer),35.5
same,Characteristic time τ,[4]; human,27 min
same,Transport constant K,[4]; human,6697.34
same,kinetic parameter β,[4]; human,3.2-5.4
O=C(O)Cc1ccccc1Nc1c(Cl)cccc1Cl [diclofenac],Tested c2(t),[5]; 1.0 h,0.192 mg/mL
same,Tested c2(t),[5]; 1.5 h,1.783 mg/mL
same,Tested c2(t),[5]; 2.0 h,4.725 mg/mL
same,Tested c2(t),[5]; 2.5 h,7.283 mg/mL
same,Tested c2(t),[5]; 3 h,9.500 mg/mL
same,Tested c2(t),[5]; 4 h,11.150 mg/mL
same,Tested c2(t),[5]; 6 h,12.333 mg/mL
same,Tested c2(t),[5]; 8 h,12.858 mg/mL
same,Tested c2(t),[5]; 12 h,12.900 mg/mL
same,Tested c2(t),[5]; 24 h,13.000 mg/mL
same,fitted parameter d of fractional compartmental model,[5]; [7],22.79±16.41
same,fitted parameter k02 of fractional compartmental model,[5]; [7],1.51±1.05
same,kinetic parameter β,clinical,> 1
same,Vd at 1 h,clinical; 100 mg,522 L
same,Vd at 1.5 h,clinical; 100 mg,56.1 L
same,Vd at 2 h,clinical; 100 mg,21.2 L
same,Vd at 2.5 h,clinical; 100 mg,13.7 L
same,Vd at 3 h,clinical; 100 mg,10.5 L
same,Vd at 4 h,clinical; 100 mg,8.97 L
same,Vd at 6 h,clinical; 100 mg,8.11 L
same,Vd at 8 h,clinical; 100 mg,7.78 L
same,Vd at 12 h,clinical; 100 mg,7.75 L
same,Vd at 24 h,clinical; 100 mg,7.69 L
same,Calculated c2(t),clinical; 1 h,0.141 mg/mL
same,Calculated c2(t),clinical; 1.5 h,1.216 mg/mL
same,Dr (generalized Deborah rate number),clinical; 1.5 h,644.65 ×10^6
same,kinetic parameter β,clinical; 1.5 h,5.538
same,Calculated c2(t),clinical; 2 h,3.818 mg/mL
same,Dr (generalized Deborah rate number),clinical; 2 h,244.03 ×10^6
same,kinetic parameter β,clinical; 2 h,4.884
same,Calculated c2(t),clinical; 2.5 h,6.832 mg/mL
same,Dr (generalized Deborah rate number),clinical; 2.5 h,124.66 ×10^6
same,kinetic parameter β,clinical; 2.5 h,4.480
same,Calculated c2(t),clinical; 3 h,9.093 mg/mL
same,Dr (generalized Deborah rate number),clinical; 3 h,75.67 ×10^6
same,kinetic parameter β,clinical; 3 h,4.256
same,Calculated c2(t),clinical; 4 h,11.349 mg/mL
same,Dr (generalized Deborah rate number),clinical; 4 h,37.46 ×10^6
same,kinetic parameter β,clinical; 4 h,3.875
same,Calculated c2(t),clinical; 6 h,12.560 mg/mL
same,Dr (generalized Deborah rate number),clinical; 6 h,16.35 ×10^6
same,kinetic parameter β,clinical; 6 h,3.388
same,Calculated c2(t),clinical; 8 h,12.846 mg/mL
same,Dr (generalized Deborah rate number),clinical; 8 h,10.07 ×10^6
same,kinetic parameter β,clinical; 8 h,3.266
same,Calculated c2(t),clinical; 12 h,13.001 mg/mL
same,Dr (generalized Deborah rate number),clinical; 12 h,5.80 ×10^6
same,kinetic parameter β,clinical; 12 h,3.471
same,Calculated c2(t),clinical; 24 h,13.073 mg/mL
same,Dr (generalized Deborah rate number),clinical; 24 h,3.07 ×10^6
same,kinetic parameter β,clinical; 24 h,3.388
gentamicin,"Sample gentamicin amount, Average","[6]; average of S1-S3, 1 h",187.2 µg
same,"Sample gentamicin amount, Average","[6]; average of S1-S3, 3 h",221.2 µg
same,"Sample gentamicin amount, Average","[6]; average of S1-S3, 6 h",171.9 µg
same,"Sample gentamicin amount, Average","[6]; average of S1-S3, 24 h",191.1 µg
same,"Sample gentamicin amount, Average","[6]; average of S1-S3, 48 h",195.1 µg
same,"Sample gentamicin amount, Average","[6]; average of S1-S3, 72 h",189.4 µg
same,"Sample gentamicin amount, Average","[6]; average of S1-S3, 96 h",199.9 µg
same,"Sample gentamicin amount, Average","[6]; average of S1-S3, 168 h",241.0 µg
same,"Sample gentamicin amount, Average","[6]; average of S1-S3, 264 h",247.5 µg
same,"Sample gentamicin amount, Average","[6]; average of S1-S3, 336 h",255.3 µg
same,"c2(t), gentamicin concentration in the target compartment",[6]; 1 h,93.6 mg/L
same,"c2(t), gentamicin concentration in the target compartment",[6]; 3 h,113.4 mg/L
same,"c2(t), gentamicin concentration in the target compartment",[6]; 6 h,90.5 mg/L
same,"c2(t), gentamicin concentration in the target compartment",[6]; 24 h,103.3 mg/L
same,"c2(t), gentamicin concentration in the target compartment",[6]; 48 h,108.4 mg/L
same,"c2(t), gentamicin concentration in the target compartment",[6]; 72 h,108.3 mg/L
same,"c2(t), gentamicin concentration in the target compartment",[6]; 96 h,117.6 mg/L
same,"c2(t), gentamicin concentration in the target compartment",[6]; 168 h,146.1 mg/L
same,"c2(t), gentamicin concentration in the target compartment",[6]; 264 h,154.7 mg/L
same,"c2(t), gentamicin concentration in the target compartment",[6]; 336 h,164.7 mg/L
same,Remained in the coating,[6]; 1 h,1207.8 µg
same,Remained in the coating,[6]; 3 h,1173.8 µg
same,Remained in the coating,[6]; 6 h,1223.1 µg
same,Remained in the coating,[6]; 24 h,1203.9 µg
same,Remained in the coating,[6]; 48 h,1199.9 µg
same,Remained in the coating,[6]; 72 h,1205.6 µg
same,Remained in the coating,[6]; 96 h,1195.1 µg
same,Remained in the coating,[6]; 168 h,1154.0 µg
same,Remained in the coating,[6]; 264 h,1147.5 µg
same,Remained in the coating,[6]; 336 h,1139.7 µg
gentamicin palmitate,kinetic parameter β,"[6]; not constant, FIG. 12",well below unity
